Data reported in ChEMBL document CHEMBL5465560, “Selectivity Literature for EUbOPEN Chemogenomic Library” (2024).

How the values were obtained:
[1] = target: Dual specificity protein kinase CLK4 (Homo sapiens, UniProt Q9HAZ1)
[2] = target: SRSF protein kinase 2 (Homo sapiens) (UniProt P78362)
[3] = target: Dual specificity protein kinase CLK1 (Homo sapiens, UniProt P49759)
[4] = target: Dual specificity tyrosine-phosphorylation-regulated kinase 1B (Homo sapiens, UniProt Q9Y463)
SRSF protein kinase 1 [5] = target: T1, SRSF protein kinase 1 (Homo sapiens, UniProt Q96SB4); details: at 1 µM
T1 sequence (Q96SB4 whole entry): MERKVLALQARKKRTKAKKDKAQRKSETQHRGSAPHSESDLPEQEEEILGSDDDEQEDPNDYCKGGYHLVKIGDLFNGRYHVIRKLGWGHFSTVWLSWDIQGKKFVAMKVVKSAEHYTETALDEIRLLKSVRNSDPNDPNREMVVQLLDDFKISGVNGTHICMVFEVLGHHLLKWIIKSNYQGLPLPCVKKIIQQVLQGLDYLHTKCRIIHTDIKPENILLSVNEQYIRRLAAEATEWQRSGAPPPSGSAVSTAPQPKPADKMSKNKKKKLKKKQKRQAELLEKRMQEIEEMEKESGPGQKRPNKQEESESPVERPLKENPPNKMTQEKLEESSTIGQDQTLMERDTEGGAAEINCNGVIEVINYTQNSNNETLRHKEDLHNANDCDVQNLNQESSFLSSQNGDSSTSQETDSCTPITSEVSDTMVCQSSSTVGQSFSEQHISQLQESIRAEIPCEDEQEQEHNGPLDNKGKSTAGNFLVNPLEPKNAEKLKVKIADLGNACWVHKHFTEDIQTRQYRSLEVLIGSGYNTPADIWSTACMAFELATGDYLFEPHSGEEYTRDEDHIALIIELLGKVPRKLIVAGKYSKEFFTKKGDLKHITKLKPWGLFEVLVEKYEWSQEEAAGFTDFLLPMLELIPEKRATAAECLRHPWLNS

[6] = target: Dual specificity protein kinase CLK3 (Homo sapiens, UniProt P49761)
Sequence of Dual specificity protein kinase CLK3 (P49761 whole entry): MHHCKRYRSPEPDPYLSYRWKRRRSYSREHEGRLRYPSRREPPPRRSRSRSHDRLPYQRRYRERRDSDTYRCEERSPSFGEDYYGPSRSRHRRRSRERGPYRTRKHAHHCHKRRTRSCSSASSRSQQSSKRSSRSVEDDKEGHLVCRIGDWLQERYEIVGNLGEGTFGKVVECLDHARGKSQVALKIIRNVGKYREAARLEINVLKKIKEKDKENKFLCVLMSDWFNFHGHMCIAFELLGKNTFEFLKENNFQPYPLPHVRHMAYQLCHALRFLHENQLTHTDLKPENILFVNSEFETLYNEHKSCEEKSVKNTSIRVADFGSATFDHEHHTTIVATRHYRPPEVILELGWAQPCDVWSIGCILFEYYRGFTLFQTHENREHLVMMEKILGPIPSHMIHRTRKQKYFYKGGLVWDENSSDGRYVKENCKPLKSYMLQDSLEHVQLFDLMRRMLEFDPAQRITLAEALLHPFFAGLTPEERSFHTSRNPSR

SRSF protein kinase 1 [7] = target: T1, SRSF protein kinase 1
[8] = target: Dual specificity tyrosine-phosphorylation-regulated kinase 1A (Homo sapiens, UniProt Q13627)
[9] = target: T2, Dual specificity tyrosine-phosphorylation-regulated kinase 2 (Homo sapiens, UniProt Q92630)
T2 sequence (Q92630 whole entry): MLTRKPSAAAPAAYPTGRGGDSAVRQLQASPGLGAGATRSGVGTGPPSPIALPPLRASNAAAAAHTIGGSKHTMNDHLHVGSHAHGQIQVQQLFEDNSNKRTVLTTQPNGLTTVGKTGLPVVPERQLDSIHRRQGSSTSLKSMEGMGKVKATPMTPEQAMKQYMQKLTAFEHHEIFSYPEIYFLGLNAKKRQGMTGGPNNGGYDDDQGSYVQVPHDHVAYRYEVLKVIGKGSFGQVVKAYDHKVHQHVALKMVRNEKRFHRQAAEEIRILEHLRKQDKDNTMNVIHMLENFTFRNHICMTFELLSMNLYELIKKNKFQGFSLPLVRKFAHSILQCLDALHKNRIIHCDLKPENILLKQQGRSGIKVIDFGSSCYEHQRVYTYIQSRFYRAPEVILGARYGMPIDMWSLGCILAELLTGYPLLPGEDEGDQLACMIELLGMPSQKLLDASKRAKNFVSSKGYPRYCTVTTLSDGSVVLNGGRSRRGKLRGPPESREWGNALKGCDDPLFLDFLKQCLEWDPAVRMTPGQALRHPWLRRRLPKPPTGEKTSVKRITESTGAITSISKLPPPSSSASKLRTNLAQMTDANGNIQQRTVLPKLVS

[10] = target: Dual specificity protein kinase CLK2 (Homo sapiens, UniProt P49760)
[11] = target: T3, Dual specificity tyrosine-phosphorylation-regulated kinase 3 (Homo sapiens, UniProt O43781)
T3 sequence (O43781 whole entry): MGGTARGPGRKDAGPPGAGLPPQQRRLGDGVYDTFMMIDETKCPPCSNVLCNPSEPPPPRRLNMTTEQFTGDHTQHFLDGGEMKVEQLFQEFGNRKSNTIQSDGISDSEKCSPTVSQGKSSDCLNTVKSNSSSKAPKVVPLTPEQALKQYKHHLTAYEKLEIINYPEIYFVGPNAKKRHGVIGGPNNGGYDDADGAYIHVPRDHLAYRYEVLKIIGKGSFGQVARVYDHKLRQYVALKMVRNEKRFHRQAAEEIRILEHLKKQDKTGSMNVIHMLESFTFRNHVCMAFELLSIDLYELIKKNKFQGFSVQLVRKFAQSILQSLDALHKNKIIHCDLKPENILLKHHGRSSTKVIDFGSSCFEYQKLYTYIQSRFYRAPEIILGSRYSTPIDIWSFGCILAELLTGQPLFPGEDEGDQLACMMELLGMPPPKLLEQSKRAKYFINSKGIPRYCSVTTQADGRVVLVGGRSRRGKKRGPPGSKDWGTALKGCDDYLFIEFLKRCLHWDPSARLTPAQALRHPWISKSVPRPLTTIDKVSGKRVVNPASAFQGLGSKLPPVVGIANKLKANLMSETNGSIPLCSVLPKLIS

[12] = target: T4, Casein kinase I isoform delta (Homo sapiens, UniProt P48730); assay: Selectivity interaction (Kinase panel (Reaction Biology)) EUB0001205a CSNK1D; details: at 1 µM
[13] = target: T5, Casein kinase I isoform epsilon (Homo sapiens, UniProt P49674); assay: Selectivity interaction (Kinase panel (Reaction Biology)) EUB0001205a CSNK1E; details: at 1 µM
[14] = target: T6, Tyrosine-protein kinase ZAP-70 (Homo sapiens) (UniProt P43403); assay: Selectivity interaction (Kinase panel (Reaction Biology)) EUB0001205a ZAP70; details: at 1 µM
T6 sequence (whole entry): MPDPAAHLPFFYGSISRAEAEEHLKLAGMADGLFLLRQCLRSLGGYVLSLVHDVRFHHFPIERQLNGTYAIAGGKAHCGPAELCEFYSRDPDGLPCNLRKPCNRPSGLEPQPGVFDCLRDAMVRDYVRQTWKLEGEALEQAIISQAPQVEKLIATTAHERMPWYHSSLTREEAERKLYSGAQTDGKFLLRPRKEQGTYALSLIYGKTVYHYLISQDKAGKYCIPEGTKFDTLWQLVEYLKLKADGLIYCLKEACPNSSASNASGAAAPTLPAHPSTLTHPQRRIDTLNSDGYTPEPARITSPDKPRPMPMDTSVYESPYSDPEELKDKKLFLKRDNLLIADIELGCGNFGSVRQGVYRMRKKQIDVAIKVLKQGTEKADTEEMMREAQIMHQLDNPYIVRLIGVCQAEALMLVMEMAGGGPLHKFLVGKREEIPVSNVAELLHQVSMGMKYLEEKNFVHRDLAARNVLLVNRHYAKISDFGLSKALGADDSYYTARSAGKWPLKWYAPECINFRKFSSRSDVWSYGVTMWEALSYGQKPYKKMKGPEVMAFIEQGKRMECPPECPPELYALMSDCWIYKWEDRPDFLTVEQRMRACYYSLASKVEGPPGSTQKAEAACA

[15] = target: TRAF2 and NCK-interacting protein kinase (Homo sapiens) (UniProt Q9UKE5); assay: Selectivity interaction (Kinase panel (Reaction Biology)) EUB0001205a TNIK; details: at 1 µM
[16] = target: Casein kinase I isoform alpha-like (Homo sapiens, UniProt Q8N752); assay: Selectivity interaction (Tracer competition assays (Reaction Biology) ) EUB0001205a CSNK1A1L
Sequence of Casein kinase I isoform alpha-like (Q8N752 whole entry, canonical isoform): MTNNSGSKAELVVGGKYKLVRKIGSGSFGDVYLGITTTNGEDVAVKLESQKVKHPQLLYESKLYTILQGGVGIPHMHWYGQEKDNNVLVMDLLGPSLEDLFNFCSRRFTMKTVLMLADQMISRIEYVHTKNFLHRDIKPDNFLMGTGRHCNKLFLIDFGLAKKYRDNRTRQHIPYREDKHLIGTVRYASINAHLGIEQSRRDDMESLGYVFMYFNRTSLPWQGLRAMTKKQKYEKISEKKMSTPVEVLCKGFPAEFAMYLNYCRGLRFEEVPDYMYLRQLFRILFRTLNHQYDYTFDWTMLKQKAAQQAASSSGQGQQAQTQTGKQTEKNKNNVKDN

[17] = target: Casein kinase I isoform alpha (Homo sapiens, UniProt P48729); assay: Selectivity interaction (Kinase panel (Reaction Biology)) EUB0001205a CSNK1A1; details: at 1 µM
[18] = target: T5, Casein kinase I isoform epsilon; assay: Selectivity interaction (Western Blot assay (autophosphorylation of CSNK1E in HEK293T-REx cells)) EUB0001205a CSNK1E; assay type: cell-based, T-REx-293
[19] = target: T4, Casein kinase I isoform delta; assay: Selectivity interaction (Western Blot assay (autophosphorylation of CSNK1D in HEK293T-REx cells)) EUB0001205a CSNK1D; assay type: cell-based, T-REx-293
[20] = target: SWI/SNF-related matrix-associated actin-dependent regulator of chromatin subfamily A member 2 (Homo sapiens, UniProt P51531); assay: Selectivity interaction (BROMOscan) EUB0001074a SMARCA2
[21] = target: TATA box-binding protein-associated factor RNA polymerase I subunit A (Homo sapiens, UniProt Q15573); assay: Selectivity interaction (AlphaScreen) EUB0001074a TAF1A
[22] = target: E3 ubiquitin-protein ligase TRIM33 (Homo sapiens, UniProt Q9UPN9); assay: Selectivity interaction (BROMOscan) EUB0001074a TRIM33
[23] = target: T7, Bromodomain-containing protein 9 (Homo sapiens, UniProt Q9H8M2); assay: Selectivity interaction (AlphaScreen) EUB0001074a BRD9
T7 sequence (Q9H8M2 whole entry): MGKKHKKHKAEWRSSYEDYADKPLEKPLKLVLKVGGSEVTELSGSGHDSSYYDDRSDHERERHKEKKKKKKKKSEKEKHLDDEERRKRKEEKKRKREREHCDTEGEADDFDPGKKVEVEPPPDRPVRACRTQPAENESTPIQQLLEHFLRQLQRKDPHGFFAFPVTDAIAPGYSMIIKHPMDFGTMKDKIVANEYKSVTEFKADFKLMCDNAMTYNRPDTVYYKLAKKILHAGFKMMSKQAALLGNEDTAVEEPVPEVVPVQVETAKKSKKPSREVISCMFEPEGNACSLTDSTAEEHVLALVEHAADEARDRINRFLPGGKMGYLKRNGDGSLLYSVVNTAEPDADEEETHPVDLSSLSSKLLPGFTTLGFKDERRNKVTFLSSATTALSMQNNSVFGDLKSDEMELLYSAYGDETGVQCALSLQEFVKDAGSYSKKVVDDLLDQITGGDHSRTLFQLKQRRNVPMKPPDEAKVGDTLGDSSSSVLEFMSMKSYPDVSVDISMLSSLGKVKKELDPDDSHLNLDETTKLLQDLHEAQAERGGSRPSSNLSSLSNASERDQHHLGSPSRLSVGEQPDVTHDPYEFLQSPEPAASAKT

[24] = target: Histone acetyltransferase KAT2B (Homo sapiens, UniProt Q92831); assay: Selectivity interaction (BROMOscan) EUB0001074a KAT2B
[25] = target: ATPase family AAA domain-containing protein 2B (Homo sapiens, UniProt Q9ULI0); assay: Selectivity interaction (BROMOscan) EUB0001074a ATAD2B
[26] = target: T8, Bromodomain-containing protein 4 (Homo sapiens, UniProt O60885); assay: Selectivity interaction (AlphaScreen) EUB0001074a BRD4
[27] = target: Nucleosome-remodeling factor subunit BPTF (Homo sapiens, UniProt Q12830); assay: Selectivity interaction (AlphaScreen) EUB0001074a BPTF
[28] = target: T7, Bromodomain-containing protein 9; assay: Selectivity interaction (BROMOscan) EUB0001074a BRD9
[29] = target: Bromodomain adjacent to zinc finger domain protein 2A (Homo sapiens, UniProt Q9UIF9); assay: Selectivity interaction (BROMOscan) EUB0001074a BAZ2A
Peregrin = Peregrin (Homo sapiens, UniProt P55201); assay: Selectivity interaction (AlphaScreen) EUB0001074a BRPF1
[30] = target: Bromodomain-containing protein 7 (Homo sapiens, UniProt Q9NPI1); assay: Selectivity interaction (BROMOscan) EUB0001074a BRD7
Sequence of Bromodomain-containing protein 7 (Q9NPI1 whole entry): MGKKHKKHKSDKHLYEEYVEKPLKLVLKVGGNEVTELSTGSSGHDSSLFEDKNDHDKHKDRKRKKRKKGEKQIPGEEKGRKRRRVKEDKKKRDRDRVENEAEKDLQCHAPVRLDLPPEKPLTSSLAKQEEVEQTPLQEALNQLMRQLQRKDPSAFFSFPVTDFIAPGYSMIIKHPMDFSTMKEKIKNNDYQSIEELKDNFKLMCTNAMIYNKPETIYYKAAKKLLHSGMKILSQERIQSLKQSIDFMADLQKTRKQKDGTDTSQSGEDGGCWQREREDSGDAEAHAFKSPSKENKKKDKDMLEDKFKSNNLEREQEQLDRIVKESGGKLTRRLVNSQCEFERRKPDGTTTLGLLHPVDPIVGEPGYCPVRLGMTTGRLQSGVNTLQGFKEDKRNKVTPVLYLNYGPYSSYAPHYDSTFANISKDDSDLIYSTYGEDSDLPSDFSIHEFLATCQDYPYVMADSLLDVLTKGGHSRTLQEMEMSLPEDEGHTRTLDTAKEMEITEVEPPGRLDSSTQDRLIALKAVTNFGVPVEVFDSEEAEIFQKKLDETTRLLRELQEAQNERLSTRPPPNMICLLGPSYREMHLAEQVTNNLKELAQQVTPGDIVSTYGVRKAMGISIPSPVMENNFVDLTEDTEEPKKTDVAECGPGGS

[31] = target: T9, Chromatin remodeling regulator CECR2 (Homo sapiens, UniProt Q9BXF3); assay: Selectivity interaction (BROMOscan) EUB0001074a CECR2
T9 sequence (Q9BXF3 whole entry): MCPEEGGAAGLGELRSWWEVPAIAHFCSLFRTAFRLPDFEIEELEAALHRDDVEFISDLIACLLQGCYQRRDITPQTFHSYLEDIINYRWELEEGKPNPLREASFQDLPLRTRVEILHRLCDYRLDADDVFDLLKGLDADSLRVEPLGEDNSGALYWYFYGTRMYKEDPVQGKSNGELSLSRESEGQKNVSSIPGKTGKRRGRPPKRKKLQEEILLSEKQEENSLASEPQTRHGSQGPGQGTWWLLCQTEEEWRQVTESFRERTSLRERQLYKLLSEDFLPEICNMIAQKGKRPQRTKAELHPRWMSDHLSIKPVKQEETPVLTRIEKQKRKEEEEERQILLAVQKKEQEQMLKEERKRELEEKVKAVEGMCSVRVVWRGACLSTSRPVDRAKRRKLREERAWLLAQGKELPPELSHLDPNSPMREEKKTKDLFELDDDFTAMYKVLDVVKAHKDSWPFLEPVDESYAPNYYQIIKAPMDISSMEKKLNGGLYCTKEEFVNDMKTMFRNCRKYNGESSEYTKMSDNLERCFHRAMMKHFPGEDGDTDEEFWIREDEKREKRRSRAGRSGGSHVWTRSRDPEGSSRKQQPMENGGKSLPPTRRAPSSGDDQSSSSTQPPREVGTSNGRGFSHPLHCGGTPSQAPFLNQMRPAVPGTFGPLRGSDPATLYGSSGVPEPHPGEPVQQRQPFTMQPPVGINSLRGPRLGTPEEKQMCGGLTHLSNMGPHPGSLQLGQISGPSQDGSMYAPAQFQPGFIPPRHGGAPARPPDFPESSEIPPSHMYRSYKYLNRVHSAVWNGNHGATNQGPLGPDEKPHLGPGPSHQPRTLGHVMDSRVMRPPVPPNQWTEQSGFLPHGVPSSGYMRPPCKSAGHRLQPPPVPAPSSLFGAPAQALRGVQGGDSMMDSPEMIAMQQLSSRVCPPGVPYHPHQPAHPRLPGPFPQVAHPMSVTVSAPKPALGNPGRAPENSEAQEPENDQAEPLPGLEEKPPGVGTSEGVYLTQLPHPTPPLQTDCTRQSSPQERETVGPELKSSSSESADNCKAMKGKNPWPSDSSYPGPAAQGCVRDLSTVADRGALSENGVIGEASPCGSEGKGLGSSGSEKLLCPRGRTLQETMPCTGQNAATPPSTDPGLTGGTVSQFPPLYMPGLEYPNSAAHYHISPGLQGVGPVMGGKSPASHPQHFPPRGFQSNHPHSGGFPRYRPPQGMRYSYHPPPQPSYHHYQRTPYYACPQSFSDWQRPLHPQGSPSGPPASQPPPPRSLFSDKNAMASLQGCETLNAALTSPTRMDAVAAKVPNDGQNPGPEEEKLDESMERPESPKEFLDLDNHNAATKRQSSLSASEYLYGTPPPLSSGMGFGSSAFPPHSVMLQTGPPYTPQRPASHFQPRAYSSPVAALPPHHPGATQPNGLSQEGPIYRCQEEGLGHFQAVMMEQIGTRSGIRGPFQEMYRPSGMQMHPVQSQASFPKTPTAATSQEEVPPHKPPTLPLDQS

[32] = target: T9, Chromatin remodeling regulator CECR2; assay: Selectivity interaction (AlphaScreen) EUB0001074a CECR2
[33] = target: T8, Bromodomain-containing protein 4; assay: Selectivity interaction (BROMOscan) EUB0001074a BRD4
[34] = target: ATPase family AAA domain-containing protein 2 (Homo sapiens, UniProt Q6PL18); assay: Selectivity interaction (BROMOscan) EUB0001074a ATAD2
CREB-binding protein = CREB-binding protein (Homo sapiens, UniProt Q92793); assay: Selectivity interaction (BROMOscan) EUB0001074a CREBBP
[35] = target: T10, Mitogen-activated protein kinase 14 (Homo sapiens, UniProt Q16539); assay: Selectivity interaction (NanoBRET assay (using HEK293T cells)) EUB0001201a MAPK14; assay type: cell-based, HEK-293T
T10 sequence (Q16539 whole entry): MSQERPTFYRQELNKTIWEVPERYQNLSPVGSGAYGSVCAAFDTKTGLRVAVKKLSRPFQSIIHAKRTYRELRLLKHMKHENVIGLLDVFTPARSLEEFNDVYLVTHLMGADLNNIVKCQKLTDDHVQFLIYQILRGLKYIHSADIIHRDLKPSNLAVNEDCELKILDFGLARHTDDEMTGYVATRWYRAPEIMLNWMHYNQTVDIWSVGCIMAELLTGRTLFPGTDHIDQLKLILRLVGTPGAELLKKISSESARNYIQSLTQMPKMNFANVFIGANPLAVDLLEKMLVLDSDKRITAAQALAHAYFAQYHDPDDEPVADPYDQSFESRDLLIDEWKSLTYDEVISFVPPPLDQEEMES

[36] = target: T10, Mitogen-activated protein kinase 14; assay: Selectivity interaction (Tracer competition assays (Reaction Biology)) EUB0001201a MAPK14
[37] = target: Bone morphogenetic protein receptor type-1A (Homo sapiens, UniProt P36894); assay: Selectivity interaction (NanoBRET assay (HEK293T cells)) EUB0001465a BMPR1A; assay type: cell-based, HEK-293T
Sequence of Bone morphogenetic protein receptor type-1A (P36894 whole entry): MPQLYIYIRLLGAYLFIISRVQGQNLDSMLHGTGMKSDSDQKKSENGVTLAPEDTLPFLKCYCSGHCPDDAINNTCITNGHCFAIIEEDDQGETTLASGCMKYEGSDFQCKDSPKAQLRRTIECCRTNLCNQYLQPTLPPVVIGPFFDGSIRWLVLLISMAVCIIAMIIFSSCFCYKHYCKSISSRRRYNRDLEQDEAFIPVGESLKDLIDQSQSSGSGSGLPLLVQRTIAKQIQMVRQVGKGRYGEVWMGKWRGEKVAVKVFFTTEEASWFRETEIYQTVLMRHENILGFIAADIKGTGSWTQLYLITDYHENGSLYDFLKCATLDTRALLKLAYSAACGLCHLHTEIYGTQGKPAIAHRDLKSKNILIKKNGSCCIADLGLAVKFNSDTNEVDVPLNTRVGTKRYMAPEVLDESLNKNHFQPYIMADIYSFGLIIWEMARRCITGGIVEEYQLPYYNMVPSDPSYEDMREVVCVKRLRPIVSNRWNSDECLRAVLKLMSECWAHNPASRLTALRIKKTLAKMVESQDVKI

Activin receptor type-1B = Activin receptor type-1B (Homo sapiens, UniProt P36896); assay: Selectivity interaction (NanoBRET assay (HEK293T cells)) EUB0001465a ACVR1B; assay type: cell-based, HEK-293T
TGF-beta receptor type-1 = TGF-beta receptor type-1 (Homo sapiens, UniProt P36897); assay: Selectivity interaction (NanoBRET assay (HEK293T cells)) EUB0001465a TGFBR1; assay type: cell-based, HEK-293T
Sequence of TGF-beta receptor type-1 (P36897 whole entry): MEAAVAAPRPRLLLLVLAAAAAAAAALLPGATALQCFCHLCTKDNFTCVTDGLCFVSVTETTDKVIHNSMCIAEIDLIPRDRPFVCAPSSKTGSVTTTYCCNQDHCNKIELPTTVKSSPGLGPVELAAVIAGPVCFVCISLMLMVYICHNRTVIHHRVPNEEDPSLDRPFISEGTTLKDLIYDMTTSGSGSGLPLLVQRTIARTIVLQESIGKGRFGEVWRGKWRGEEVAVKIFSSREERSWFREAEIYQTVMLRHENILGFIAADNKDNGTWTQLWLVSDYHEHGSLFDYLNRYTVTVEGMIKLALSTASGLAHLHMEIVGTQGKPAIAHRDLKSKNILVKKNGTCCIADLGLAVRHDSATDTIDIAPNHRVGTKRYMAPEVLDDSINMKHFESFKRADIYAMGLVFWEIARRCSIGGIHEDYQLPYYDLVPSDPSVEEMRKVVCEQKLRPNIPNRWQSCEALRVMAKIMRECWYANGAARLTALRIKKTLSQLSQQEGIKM

[38] = target: Bone morphogenetic protein receptor type-1B (Homo sapiens, UniProt O00238); assay: Selectivity interaction (NanoBRET assay (HEK293T cells)) EUB0001465a BMPR1B; assay type: cell-based, HEK-293T

CN(c1ncccc1CNc1ccnc(-c2nc3c(F)c(Cl)ccc3[nH]2)n1)S(C)(=O)=O
IC50 [1]: > 10 µM | dTM [2]: 4 K | IC50 [3]: > 10 µM | IC50 [4]: > 10 µM | % of control (SRSF protein kinase 1 [5]): 8.76% | IC50 [6]: > 10 µM | dTM (SRSF protein kinase 1 [7]): 9.1 K | IC50 [8]: > 10 µM | IC50 [9]: > 10 µM | IC50 [10]: > 10 µM | IC50 [11]: > 10 µM

CN1CCC(F)(Cn2cnc(-c3ccc(F)cn3)c2-c2ccnc3[nH]ccc23)CC1
% of inhibition [12]: -6% | % of inhibition [13]: 0% | % of inhibition [14]: 71% | % of inhibition [15]: 43% | IC50 [16]: 0.52 µM | % of inhibition [17]: 6% | IC50 [18]: 12.4 µM | IC50 [19]: 0.5 µM

CCc1cc2cc(NS(=O)(=O)c3ccc(C#N)cc3)ccc2n(CC)c1=O
IC50 [20]: > 77 µM | IC50 [21]: > 200 µM | IC50 [22]: > 100 µM | IC50 [23]: > 200 µM | IC50 [24]: > 100 µM | IC50 [25]: > 100 µM | IC50 [26]: > 200 µM | IC50 [27]: > 200 µM | IC50 [28]: > 100 µM | IC50 [29]: > 100 µM | IC50 (Peregrin): > 200 µM | IC50 [30]: > 100 µM | IC50 [31]: > 100 µM | IC50 [32]: > 200 µM | IC50 [33]: > 100 µM | IC50 [34]: > 100 µM | IC50 (CREB-binding protein): > 100 µM

CCc1ccc(-c2ncn(CC3(F)CCN(C)CC3)c2-c2ccnc3[nH]ccc23)nc1
IC50 [35]: 9.9 µM | IC50 [36]: > 3 µM

COc1cc(-c2cncc(-c3ccc(N4CCN(C(C)C)CC4)cc3)c2C)cc(F)c1C(=O)N1CCCC1
IC50 [37]: > 0.01 µM | IC50 (Activin receptor type-1B): > 0.01 µM | IC50 (TGF-beta receptor type-1): > 0.01 µM | IC50 [38]: > 0.01 µM
